For data set [1], the target named is SARS-CoV-2 (2019-nCoV) Envelope Recombinant Protein (Severe acute respiratory syndrome coronavirus 2, UniProt P0DTC4). The class given is biochemical.
For data set [2], the target named is Recombinant SARS-CoV-2 spike protein (Severe acute respiratory syndrome coronavirus 2, UniProt P0DTC2). Type of data set: biochemical.
For a further data set, the target named is envelope protein (Severe acute respiratory syndrome coronavirus 2, UniProt P0DTC4). Type of data set: biochemical, SARS-CoV-2.
envelope protein, sequence (P0DTC4 whole entry): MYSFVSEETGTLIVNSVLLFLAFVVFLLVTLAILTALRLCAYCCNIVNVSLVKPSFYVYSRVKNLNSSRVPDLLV
The subject of data set [3] is SARS-COV-2 R209112 strain. Nature of the data set: SARS-CoV-2 inactivation test, Vero cells, optical microscope observation. Type of data set: cell-based.
The subject of data set [4] is SARS-COV-2 R209112 strain. The class given is cell-based.
For data set [5], the system named is wild-type (WT) SARS-CoV-2 strain (EPI_ISL_578176). Type of data set: cell-based.
Data set [6] has as its system SARS-COV-2 R209112 strain.

Read-outs that look alike come from different tables or passages of the source.

The values that follow come from patent US20230241188A1 (priority 2020, published 2023).

SARS-CoV-2 (2019-nCoV) Envelope Recombinant Protein, sequence (P0DTC4 whole entry): as above

Regarding `CC(=O)N[C@@H](CS)C(=O)O` [Acetylcysteine, acetylcysteine], the “envelope protein band on SDS-PAGE gel” value in [1] is “did not disintegrate the protein”. For the same compound, in data set [2], the “comparative reduction of disulphide bonds, DTT alone vs DTT with Acetylcysteine (slope ratio)” value turned out to be 42% and the “disulphide linkages reduced by Acetylcysteine” value turned out to be 58%. Also, on envelope protein, the “differential assay between Acetylcysteine and DTT (slope ratio)” value was found to be 60%; the “disulphide bonds reduced by Acetylcysteine before the addition of DTT” value came to 40%. For the same compound, in data set [3], the “optical microscope observation of SARS-CoV-2 infection, V1” value is recorded as “+”; the “optical microscope observation of SARS-CoV-2 infection, V2” value was “+”; the “optical microscope observation of SARS-CoV-2 infection, V3” value is “- and +”; the “optical microscope observation of SARS-CoV-2 infection, V4” value was “-”. Besides, in data set [3], the “optical microscope observation of SARS-CoV-2 infection, V5” value was “-” and the “therapeutic effect (cytopathic effect at 5 days), in words” value is listed as “did not show any therapeutic effect”. Besides, in data set [4], the “effect (cytopathic effect at 7 days), in words” value is reported as “did not show any effect”; the “optical microscope observation of SARS-CoV-2 infection, V1” value is given as “+”; the “optical microscope observation of SARS-CoV-2 infection, V2” value is on record as “+”; the “optical microscope observation of SARS-CoV-2 infection, V3” value is “-”. In addition, in data set [4], the “optical microscope observation of SARS-CoV-2 infection, V4” value is reported as “-” and the “optical microscope observation of SARS-CoV-2 infection, V5” value is on record as “-”. In addition, in [5], the “viral inhibition (CPE, optical and Neutral Red cell staining)” value was “no viral inhibition”. In addition, in [6], the “viral inactivation test (RNA extraction), Δlog, V1” value came to 0.088 log and the “viral inactivation test (RNA extraction), Δlog, V2” value worked out at 0.224 log. Moreover, the “TOXICITY (optical microscope observation)” value (from here on “TOXICITY”) in the data set on Vero cells is given as “Nil”. The “TOXICITY” value in the data set with BGM cells was “Nil”.

Regarding Bromelain, the “TOXICITY” value with Vero cells and in the data set with BGM cells was “Nil” each time.
